Source: patent US20080260682A1, “Polyethylene glycol colonic purgative composition” (Salix Pharmaceuticals, Inc., priority 2005, published 2008)

System: normal healthy subjects
Conditions: in vivo
Experimental: In addition, the safety and tolerability of the PEG 8000 was evaluated.
This study was a double-blinded, randomized, crossover study with 16 healthy male subjects. Subjects were randomly assigned to one of two dosing sequences: Sequence A (n=9) or Sequence B (n=6). For each dosing sequence there were three scheduled visits: a screening visit (Visit 0) and two treatment visits (Visits 1 and 2). […] At the beginning of day 4, the standardized diet ended and subjects were given a low fiber breakfast followed by clear liquids for the rest of the day. On day 5, patients received nothing by mouth (NPO) after the administration of the test materials.
A baseline period measurement period began at 6 p.m. on day 2 and lasted 48 hours. During the baseline period, all bowel movements were collected, recorded, and assessed for consistency and weight. At 6 p.m. on day 4, the test article administration began. […] In both dosing sequences, Visit I was followed by a two-week washout period before subjects crossed over to begin visit 2. During the observation period of test article administration, all bowel movements were collected, recorded, and assessed for consistency and weight. The observation period of test article administration began when the test article was administered and continued until 11 a.m. on day 5.
Subjects drank another 5 doses in the same manner beginning at 6:00 a.m. on day 5.

polyethylene glycol 8000 [PEG 8000] was tested, and the “serious events, severe events, deaths” value was “no serious events, no severe events, and no deaths”.
